According to patent US8975086B2, “Method for treating or preventing bladder cancer using the DEPDC1 polypeptide” (OncoTherapy Science, Inc., priority 2008, dated 2015):
Where a SMILES comes first, the peptide text is derived from it.

Key:
[1] = tested on: DLG1; assay: Quantitative RT-PCR of downstream gene DLG1 in UM-UC-3 cells; format: cell-based, human; conditions: UM-UC-3 cells transfected with siRNA, compared with siEGFP
Experimental: (§1) UM-UC-3 cells were transfected with siRNA against DEPDC1 (si-DEPDC1), ZNF224 (si-ZNF224-2) or EGFP (control siRNA). The target sequences of the synthetic oligo-duplex for siRNA against DEPDC1 (Sigma Aldrich) were as follows: si-DEPDC1,5′-CCAAAGUUCCGUAGUCUAA-3′(SEQ ID NO: 75), ZNF224 (si-ZNF224-2) or EGFP as described in “RNA interference assay” section.
(§2) Total RNAs were extracted from each sample at 12 hours and 24 hours after the transfection, labeled with Cy5 (for si-DEPDC1- and si-ZNF224-2-transfected cells) or Cy3 (for si-EGFP-transfected cells), and subjected to cohybridization onto cDNA microarrayslides containing 36468 cDNA or ESTs as described previously (Takata R, et al., Clin Cancer Res 2005 11:2625-36). After normalization of the data, it was excluded genes from further analysis when Cy5 and Cy3 dyes yielded signals intensities lower than the cut-off value. For other genes, the Cy5/Cy3 ratio was calculated using the raw data of each samples. […] Validation of candidate downstream genes of both DEPDC1 and ZNF224 was carried out with quantitative RT-PCR analysis using the SYBR green dye (Rhoche) and the same amplified RNAs from UM-UC-3 cells used for cDNA microarray experiments, with each gene-specific primer as follows;
(§3) All experiments were performed in duplicate. The calculated quantity of the target gene for each sample was then divided by the average calculated quantity of beta 2-microglobulin (beta 2-MG) corresponding to each sample to give a relative expression of the target gene for each sample

[2] = tested on: A20 (TNFAIP3); assay: Quantitative RT-PCR of downstream gene A20 in UM-UC-3 cells; format: cell-based, human; conditions: UM-UC-3 cells transfected with siRNA, compared with siEGFP
Experimental: as §1
as §2, with “After normalization of the data, it was excluded genes from further analysis when Cy5 and Cy3 dyes yielded signals intensities lower than the cut-off value.” left out
as §3

[3] = tested on: ZNF224 transcript; assay: Semiquantitative RT-PCR of knockdown effect of ZNF224 siRNA expression vectors in UM-UC-3 cells; format: cell-based, human; conditions: compared with si-EGFP control
Experimental: It has been previously established a vector-based RNA interference (RNAi) system, psiU6BX3.0 that was designed to express small interfering RNAs (siRNA) in mammalian cells (Shimokawa T, et al., Cancer Res 2003 63:6116-20). Plasmids designed to express siRNA to ZNF224 were prepared by cloning of double-stranded oligonucleotides into the BbsI site of psiU6BX vectors. The target sequences of the synthetic oligonucleotides for RNAi were as follows:
si-ZNF224#2: 5′-CCGCAGGAACACATCAAGA-3′ (SEQ ID NO: 10) for the ZNF224-specific sequence. DNA sequences of all constructs were confirmed by DNA sequencing. […] To evaluate the knockdown effect of siRNAs by semi-quantitative RT-PCR with specific primers (see below), total RNAs were extracted from the transfected cells after 4-day incubation with neomycin (Geneticin, Invitrogen). […]
5′-[…]-3′ (SEQ ID NO: 13) and 5′-[…]-3′ (SEQ ID NO: 14) for GAPDH as a quantitative control. The transfected UM-UC-3 cells were cultured for 21 or 14 days in the presence of 1.0 mg/ml of neomycin, and the number of colonies were counted by Giemsa staining. Viability of UM-UC-3 cells was evaluated by 3-(4,5-dimethylthiazol-2-yl)-2,5-diphenyltetrazolium bromide (MTT) assay at 14 days after the treatment of neomycin with cell counting kit-8 according to manufacturer's recommendation (Wako, Osaka, Japan). […]

[4] = tested on: UM-UC-3 cells; assay: MTT and colony-formation assays of UM-UC-3 cells transfected with siRNA expression vectors; format: cell-based, human; conditions: UM-UC-3 cells transfected with siRNA expression vector, neomycin selection
From the text: si-ZNF224#2: 5′-CCGCAGGAACACATCAAGA-3′ (SEQ ID NO: 10) for the ZNF224-specific sequence. DNA sequences of all constructs were confirmed by DNA sequencing. Eight-micrograms each of siRNA-expression vector were transfected into UM-UC-3 cells (1×10^6 cells per 10 cm-dish), respectively, using FuGENE6 transfection reagent (Roche) according to the supplier's recommendations. To evaluate the knockdown effect of siRNAs by semi-quantitative RT-PCR with specific primers (see below), total RNAs were extracted from the transfected cells after 4-day incubation with neomycin (Geneticin, Invitrogen). The specific primer sets for RT-PCR are as follows; 5′-[…]-3′ (SEQ ID NO: 11) and 5′-[…]-3′ (SEQ ID NO: 12) for ZNF224;
5′-[…]-3′ (SEQ ID NO: 13) and 5′-[…]-3′ (SEQ ID NO: 14) for GAPDH as a quantitative control. The transfected UM-UC-3 cells were cultured for 21 or 14 days in the presence of 1.0 mg/ml of neomycin, and the number of colonies were counted by Giemsa staining. Viability of UM-UC-3 cells was evaluated by 3-(4,5-dimethylthiazol-2-yl)-2,5-diphenyltetrazolium bromide (MTT) assay at 14 days after the treatment of neomycin with cell counting kit-8 according to manufacturer's recommendation (Wako, Osaka, Japan). Absorbance at 570 nm wavelength was measured with a Microplate Reader 550 (Bio-Rad, Hercules, Calif.). These experiments were performed in triplicate.

[5] = tested on: NHDF-Ad cells; assay: MTT assay of cell viability of normal human dermal fibroblasts treated with peptide; format: cell-based; conditions: DEPDC1 and ZNF224 hardly detectable
Experimental: (§4) UM-UC-3 and normal human dermal fibroblast-derived NHDF-Ad cell lines were incubated with the 11R peptides at the concentration of 0, 1, 2, or 3 micromol/L for 5 days. Each peptide was added at every 24 hours at the appropriate concentrations and the viability of cells was evaluated by MTT assay at every day after the treatment.
(§5) To examine the effect of DEPDC1611-628 peptide on cell growth of UM-UC-3 and NHDF cells, the cells were incubated with the DEPDC1611-628 or scramble peptides at the concentration of 0, 1, 2, or 3 micro M for 5 days, respectively. Each peptide was added at every 24 hours at the appropriate concentrations and the viability of cells was evaluated by MTT assay every day. Absorbance at 570 nm wavelength was measured with a Microplate Reader 550 (Bio-Rad). These experiments were performed in triplicate.

[6] = tested on: UM-UC-3 cells; assay: MTT assay of cell viability of UM-UC-3 bladder cancer cells treated with 11R peptides; format: cell-based, human; conditions: UM-UC-3 cells; peptide 1, 2 or 3 micro M added every 24 hours for 5 days
Experimental: as §4, §5

[7] = target: T1, DEPDC1-ZNF224 complex (Homo sapiens, UniProt Q9NZL3, H562R/M118V); assay: Immunoprecipitation of exogenous DEPDC1-HA and ZNF224-FLAG complex in peptide-treated COS7 cells; format: cell-based
T1 construct: expressed in transfected cells; host or cells: COS7 cells, transiently co-transfected (pCAGGS-type vectors)
Experimental: To confirm the interaction between DEPDC1 and ZNF224 in bladder cancer cells and identify the ZNF224-binding region in DEPDC1, the immunoprecipitation experiment was carried out as follows. First, it was confirmed interaction between endogenous DEPDC1 and exogenous ZNF224 by immunoprecipitation experiments using anti-DEPDC1 polyclonal antibody for immunoprecipitation and anti-FLAGM2 antibody (Amersham) for immunoblotting. To further determine the ZNF224-binding region in DEPDC1, it was cloned six partial constructs of DEPDC1 (DEPDC11-147, DEPDC1141-300, DEPDC1177-597, DEPDC1300-669, DEPDC1587-740 and DEPDC1654-811) into appropriate sites of COOH-terminal HA-tagged pCAGGS vector. The nucleotide sequence of each clones were determined with an ABI Prism 3700 DNA sequencer (Applied Biosystems, Foster City, Calif.), using each primer. Cell extracts from Cos7 cell line, transfected with each of plasmids expressing one of these six partial segments of DEPDC1, were precleared by incubation at 4 degrees C. for 1 hour with 100 micro 1 of protein G-agarose beads in final volumes of 2 mL of immunoprecipitation buffer (0.5% NP40, 50 mmol/L Tris-HCl, 150 mmol/L NaCl) in the presence of proteinase inhibitor. After centrifugation at 1,000 rpm for 5 minutes at 4 degrees C., the supernatants were incubated at 4 degrees C. with anti-HA rat for 1 hours. After the beads were collected from each sample by centrifugation at 5,000 rpm for 2 minutes and washed six times with 1 mL of immunoprecipitation buffer, the washed beads were re-suspended in 50 uL of Laemmli sample buffer and boiled for 3 minutes before the proteins were separated on 10% SDS-PAGE gels. Immunoblot was done using anti-HA rat antibody and anti-FLAGM2 monoclonal antibody, respectively (Sigma-Aldrich Co., St. Louis, Mo.).
To examine the effect of these polyarginine (11R)-linked peptides on inhibition of the DEPDC1-ZNF224 complex formation, they were co-transfected with DEPDC1 and ZNF224 constructs into COS7 cells. […] Immunoprecipitation were performed according to methods as described in “Identification of the ZNF224-binding regions in DEPDC1 protein” section.

T1 sequence (Q9NZL3 whole entry M118V/H562R, one chain of several): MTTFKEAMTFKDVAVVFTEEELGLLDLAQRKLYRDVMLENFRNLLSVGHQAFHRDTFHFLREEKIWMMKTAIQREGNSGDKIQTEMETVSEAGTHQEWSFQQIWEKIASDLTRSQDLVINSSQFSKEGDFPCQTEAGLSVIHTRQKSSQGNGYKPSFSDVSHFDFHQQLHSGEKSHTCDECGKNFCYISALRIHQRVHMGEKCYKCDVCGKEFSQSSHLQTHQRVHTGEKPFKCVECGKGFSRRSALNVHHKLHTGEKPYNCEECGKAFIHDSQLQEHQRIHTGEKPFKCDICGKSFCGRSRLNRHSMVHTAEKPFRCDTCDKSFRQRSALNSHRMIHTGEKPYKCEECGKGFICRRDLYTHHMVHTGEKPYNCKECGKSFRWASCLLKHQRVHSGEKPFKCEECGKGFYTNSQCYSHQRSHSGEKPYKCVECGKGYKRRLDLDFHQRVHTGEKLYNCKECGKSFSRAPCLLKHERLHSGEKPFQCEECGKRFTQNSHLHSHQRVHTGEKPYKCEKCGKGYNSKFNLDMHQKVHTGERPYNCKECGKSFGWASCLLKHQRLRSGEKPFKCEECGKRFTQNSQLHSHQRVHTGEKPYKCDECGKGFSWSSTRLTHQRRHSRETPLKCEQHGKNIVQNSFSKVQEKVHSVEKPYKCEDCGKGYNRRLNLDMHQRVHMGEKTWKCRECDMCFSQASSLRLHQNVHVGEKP

| Compound | DLG1 transcript (quantitative RT-PCR) [1] | A20 transcript (quantitative RT-PCR) [2] | amount of ZNF224 transcript (knockdown effect) [3] | growth of UM-UC-3 cell (MTT and colony-formation assays) [4] | further results |
| --- | --- | --- | --- | --- | --- |
| 5′-CCAAAGUUCCGUAGUCUAA-3′ [si-DEPDC1] | time-dependent increase | time-dependent increase | – | – | – |
| 5′-CCGATTTGGATGATGAAGA-3′ [si-ZNF224-1] | – | – | significantly suppressed | marked suppression growth | – |
| 5′-CCGCAGGAACACATCAAGA-3′ [si-ZNF224-2] | time-dependent increase | time-dependent increase | significantly suppressed | marked suppression growth | – |
| CC[C@H](C)[C@H](NC(=O)[C@H](CCSC)NC(=O)[C@H](CCCNC(=N)N)NC(=O)[C@H](CCSC)NC(=O)[C@H](CC(C)C)NC(=O)[C@H](CC(C)C)NC(=O)[C@H](CCC(N)=O)NC(=O)[C@H](CC(C)C)NC(=O)[C@H](CCCCN)NC(=O)[C@H](CCCNC(=N)N)NC(=O)[C@H](CCCNC(=N)N)NC(=O)[C@H](CC(N)=O)NC(=O)[C@@H]1CCCN1C(=O)[C@@H]1CCCN1C(=O)CNC(=O)CNC(=O)CNC(=O)[C@H](CCCNC(=N)N)NC(=O)[C@H](CCCNC(=N)N)NC(=O)[C@H](CCCNC(=N)N)NC(=O)[C@H](CCCNC(=N)N)NC(=O)[C@H](CCCNC(=N)N)NC(=O)[C@H](CCCNC(=N)N)NC(=O)[C@H](CCCNC(=N)N)NC(=O)[C@H](CCCNC(=N)N)NC(=O)[C@H](CCCNC(=N)N)NC(=O)[C@H](CCCNC(=N)N)NC(=O)[C@@H](N)CCCNC(=N)N)C(=O)N[C@@H](CO)C(=O)N[C@@H](CCCNC(=N)N)C(=O)N[C@@H](CCSC)C(=O)N[C@@H](CO)C(=O)O [11R-DEP611-628, RRRRRRRRRRR-GGG-PPNRRKLQLLMRMISRMS] (H-RRRRRRRRRRRGGGPPNRRKLQLLMRMISRMS-OH) | – | – | – | – | cell viability measured by MTT assay [5]: no significant effect on cell viability; cell viability measured by MTT assay ([5]; listed as DEPDC1611-628): no off-target effect |
| RRRRRRRRRRR-GGG-AIDALQLCCLLLPPPNRR (RRRRRRRRRRRGGGAIDALQLCCLLLPPPNRR; An artificially synthesised dominant negative peptide) [11R-DEP598-615, 11R-linked DEPDC1 codons 598-615 peptide] | – | – | – | – | cell viability measured by MTT assay [6]: moderate suppress in cell viability in dose-dependent manner; complex formation of DEPDC1-HA and ZNF224-FLAG (immunoprecipitation) ([7]; four peptides at 3 micro M added 6 hours after transfection, twenty-four hours later): moderate effect; complex formation between exogenously expressed DEPDC1-HA and ZNF224-Flag (immunoprecipitation) ([7]; six peptides added 6 hours after transfection, immunoprecipitation fifteen hours later): slight inhibition |
